Values of other authors in US20060024740A1 (priority 2002, published 2006).

Key:
Tapesia acuformis = test system: Tapesia acuformis; set-up: key: S = Sensitive; R = Resistant
Tapesia yallundae = test system: Tapesia yallundae; set-up: key: S = Sensitive; R = Resistant

| Compound | Fungicide Sensitivity (Tapesia acuformis) | Fungicide Sensitivity (Tapesia yallundae) |
| --- | --- | --- |
| Cc1cc(C2CC2)nc(Nc2ccccc2)n1 [Cyprodinil] | S | S |
| COC(=O)Nc1nc2ccccc2[nH]1 [Carbendazim, carbendazim] | S and R | R |
| CCCN(CCOc1c(Cl)cc(Cl)cc1Cl)C(=O)n1ccnc1 [Prochloraz] | S and R | R and S |
| CC(C)(C)C(O)C(Oc1ccc(Cl)cc1)n1cncn1 (centres unmarked) [Triadimenol, triadimenol] | R | R and S |
